Measurements as given in patent publication US10413535B2, “Pharmaceutical compositions comprising an integrin ALPHA4 antagonist for use in treating ocular inflammatory conditions” (AXEROVISION, INC., priority 2015, dated 2019).
Read-outs that look alike come from different tables or passages of the source.

Assays:
Human α4β1 = target: T1, Human α4β1 (Homo sapiens, UniProt P05556+P13612); assay: J6 saturation binding assay (filtration) with [3H]GW559090; details: [3H]GW559090, J6 cells; geometric mean and 95% CL, 4 experiments
T1 construct: characterized in human J6 cells which express VLA-4; endogenous in cells; host or cells: Jurkat J6 cells (human lymphoblast cell line)
Method: Jurkat J6 cells (human lymphoblast cell line) were grown as a suspension culture in RPMI 1640 supplemented with FCS (10%) and glutamine (2 mM). RPMI8866 cells (human B lymphoid cell line) were grown as a suspension culture in RPMI 1640 supplemented with FCS (10%) and glutamine (2 mM). RBL-2H3 cells (rat basophilic cell line) were cultured in Eagle's MEM plus Earles salts supplemented with 2 mM L-glutamine, 1 mM sodium pyruvate, 1× non-essential amino acids, 1 mM Na pyruvate 10% heat inactivated foetal calf serum.
Binding of the compound of formula I was characterized in human J6 cells which express VLA-4. J6 cells were harvested by centrifugation for 5 minutes at 500 g and resuspended in assay buffer (50 mM HEPES, pH 7.5, 100 mM NaCl, 2 mM glucose, 1 mM MnCl2). Each well contained 1×10^6 cells and either 10 μM cold GW559090, to define the NSBs (non-specific binding), or buffer. […] Bound [3H]GW559090 was separated from free by rapid vacuum filtration through pre-soaked Whatman GF/B filters, followed by three washes in ice-cold buffer, scintillant was then added to filter discs and disintegrations per minute measured on a Beckman Scintillation counter. […] GW559090 added for each concentration of the saturation curve was measured by counting disintegrations from a 50 μL aliquot of the label dilution range.

Beagle Dogs = assay: 13-week topical ocular toxicity study in Beagle dogs; type: in vivo, dog
Method: (§1) GW559090A was given to Beagle Dogs by topical ocular administration for 13 weeks. Animals were dosed six or twelve times per day, with one hour between doses. Treatment groups were: (1) vehicle (12 times a day), (2) 30 mg/mL/occasion given six times a day, (3) 50 mg/mL/occasion given six times a day, or (4) 50 mg/mL/occasion, given 12 times a day.
(§2) GW559090A was formulated as a stock solution in 25 mM phosphate buffer with 0.5% sodium chloride to provide a 50 mg/mL stock solution, which was used for administration to Groups 3 or 4, or further diluted with 25 mM phosphate buffer with 0.75% sodium chloride to provide a 30 mg/mL solution for administration to Group 2.
(§3) During the 13 week treatment period dogs received daily topical ocular doses of GW559090 or vehicle (12 times a day) at a constant dose volume of 0.06 mL (given 6 or 12 times a day, with one hour between doses). The test article formulation or vehicle was carefully dropped into the everted lower eyelid of the left eye from a suitable distance, to prevent contact of the positive displacement pipette with the eye. The lower and upper lids were then gently held together for approximately five seconds, to prevent loss of dose and aid even distribution across the external ocular surface. The un-dosed eye was not manipulated at any time and served as a within animal untreated control site.

[1] = Toxicokinetics in 13-week topical ocular dog study; details: in vivo, topical or ocular
Method: as §1, §2, §3

[2] = topical ocular 13 weeks, 30 or 50 mg/mL/occasion six times daily or 50 mg/mL/occasion 12 times daily

T1 sequence (P13612 34-1032): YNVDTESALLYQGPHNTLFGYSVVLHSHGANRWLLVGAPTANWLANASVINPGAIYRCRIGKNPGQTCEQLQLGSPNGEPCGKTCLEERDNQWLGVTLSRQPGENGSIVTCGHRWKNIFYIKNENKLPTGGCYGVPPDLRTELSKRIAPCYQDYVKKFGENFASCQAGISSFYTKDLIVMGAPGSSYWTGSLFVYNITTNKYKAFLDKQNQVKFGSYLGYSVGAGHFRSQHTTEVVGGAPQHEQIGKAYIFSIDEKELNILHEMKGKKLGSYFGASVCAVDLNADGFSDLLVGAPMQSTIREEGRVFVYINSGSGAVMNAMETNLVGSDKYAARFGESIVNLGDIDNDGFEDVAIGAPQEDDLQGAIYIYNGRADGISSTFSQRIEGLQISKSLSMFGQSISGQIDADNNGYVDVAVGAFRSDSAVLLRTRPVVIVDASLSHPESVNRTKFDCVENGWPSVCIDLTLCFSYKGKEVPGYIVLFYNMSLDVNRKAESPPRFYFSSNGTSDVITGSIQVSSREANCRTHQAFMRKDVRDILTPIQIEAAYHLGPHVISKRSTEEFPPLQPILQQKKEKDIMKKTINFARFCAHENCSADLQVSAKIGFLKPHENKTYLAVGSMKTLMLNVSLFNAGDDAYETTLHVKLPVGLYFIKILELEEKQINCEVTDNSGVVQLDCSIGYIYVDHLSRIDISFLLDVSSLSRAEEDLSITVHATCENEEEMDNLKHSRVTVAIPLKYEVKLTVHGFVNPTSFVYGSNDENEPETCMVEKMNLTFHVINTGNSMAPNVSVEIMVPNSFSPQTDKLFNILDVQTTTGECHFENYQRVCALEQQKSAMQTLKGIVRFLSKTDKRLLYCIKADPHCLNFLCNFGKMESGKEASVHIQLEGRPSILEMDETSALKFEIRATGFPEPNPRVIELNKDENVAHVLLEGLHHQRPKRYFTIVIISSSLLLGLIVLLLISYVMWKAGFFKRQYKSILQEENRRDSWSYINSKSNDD
T1 sequence (P05556 21-798): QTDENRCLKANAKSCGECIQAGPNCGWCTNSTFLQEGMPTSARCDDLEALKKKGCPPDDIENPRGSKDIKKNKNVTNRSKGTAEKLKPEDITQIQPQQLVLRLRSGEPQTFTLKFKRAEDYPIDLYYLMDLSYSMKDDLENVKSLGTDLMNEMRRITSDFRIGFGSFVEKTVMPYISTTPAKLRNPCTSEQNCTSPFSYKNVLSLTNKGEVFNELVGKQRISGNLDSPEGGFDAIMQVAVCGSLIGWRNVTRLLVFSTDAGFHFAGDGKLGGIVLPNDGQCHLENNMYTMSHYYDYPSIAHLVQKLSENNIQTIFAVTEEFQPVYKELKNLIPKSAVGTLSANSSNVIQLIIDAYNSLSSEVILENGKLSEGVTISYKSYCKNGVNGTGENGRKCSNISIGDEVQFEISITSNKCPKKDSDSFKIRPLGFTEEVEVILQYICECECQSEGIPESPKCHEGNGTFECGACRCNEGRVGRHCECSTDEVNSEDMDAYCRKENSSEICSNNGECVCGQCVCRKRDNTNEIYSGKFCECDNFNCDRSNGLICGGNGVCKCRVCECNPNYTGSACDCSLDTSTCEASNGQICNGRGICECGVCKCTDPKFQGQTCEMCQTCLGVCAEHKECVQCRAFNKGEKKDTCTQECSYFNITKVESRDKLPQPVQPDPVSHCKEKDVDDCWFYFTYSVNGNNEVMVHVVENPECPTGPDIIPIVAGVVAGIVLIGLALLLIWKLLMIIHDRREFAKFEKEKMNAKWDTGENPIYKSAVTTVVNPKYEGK

## Cc1ccccc1OCC(=O)N[C@@H](CC(C)C)C(=O)N[C@@H](Cc1ccc(OC(=O)N2CCC(C(N)=O)CC2)cc1)C(=O)O [GW559090, (2S)-3-[4-({[4-(Aminocarbonyl)-1-piperidinyl]carbonyl}oxy)phenyl]-2-[((2S)-4-methyl-2-{[2-(2-methylphenoxy)acetyl]amino}pentanoyl)amino]propanoic acid]
Human α4β1
  Kd: 0.19 nM
Beagle Dogs; given 12 times a day, 13 weeks
  No-Observed-Adverse-Effect level (NOAEL): 50 mg/mL/occasion
Beagle Dogs; [2]
  Ocular change or systemic toxicity: no ocular change or systemic toxicity
  Tolerability: well-tolerated
[1]; both sexes, Beagle, 50 mg/mL/occasion, dogs, males and females combined, 50 mg/mL/occasion 12 times a day, Week 13, read-out: AUC0-1 exposure at NOAEL
  AUC(0-t): 11.2 ng·h/mL
[1]; both sexes, Beagle, 50 mg/mL/occasion, dogs, males and females combined, 50 mg/mL/occasion 12 times a day, Week 13, read-out: Estimated AUC0-24 at NOAEL
  Estimated AUC0-24: 134 ng·h/mL
[1]; both sexes, Beagle, dogs, males and females combined, 50 mg/mL/occasion 12 times a day, Week 13, read-out: Cmax at NOAEL
  Cmax: 28.7 ng/mL
[1]; female, beagle, 30 mg/mL/occasion, female dogs, 30 mg/mL, 6 daily doses, Day 1
  Tmax: 30 min
[1]; female, beagle, 30 mg/mL/occasion, female dogs, 30 mg/mL, 6 daily doses, Day 1, read-out: AUC0-1
  AUC(0-t): 5.27 ng·h/mL
[1]; female, beagle, 30 mg/mL/occasion, female dogs, 30 mg/mL, 6 daily doses, Day 1, read-out: AUC0-24
  AUC(0-t): 31.6 ng·h/mL
[1]; female, beagle, 30 mg/mL/occasion, female dogs, 30 mg/mL, 6 daily doses, Day 1, read-out: Cmax
  Cmax: 12.2 ng/mL
[1]; female, beagle, 30 mg/mL/occasion, female dogs, 30 mg/mL, 6 daily doses, Week 4
  Tmax: 22.5 min
[1]; female, beagle, 30 mg/mL/occasion, female dogs, 30 mg/mL, 6 daily doses, Week 4, read-out: AUC0-1
  AUC(0-t): 4.28 ng·h/mL
[1]; female, beagle, 30 mg/mL/occasion, female dogs, 30 mg/mL, 6 daily doses, Week 4, read-out: AUC0-24
  AUC(0-t): 25.7 ng·h/mL
[1]; female, beagle, 30 mg/mL/occasion, female dogs, 30 mg/mL, 6 daily doses, Week 4, read-out: Cmax
  Cmax: 9.34 ng/mL
[1]; female, beagle, 30 mg/mL/occasion, female dogs, 30 mg/mL, 6 daily doses, Week 13
  Tmax: 15 min
[1]; female, beagle, 30 mg/mL/occasion, female dogs, 30 mg/mL, 6 daily doses, Week 13, read-out: AUC0-1
  AUC(0-t): 6.05 ng·h/mL
[1]; female, beagle, 30 mg/mL/occasion, female dogs, 30 mg/mL, 6 daily doses, Week 13, read-out: AUC0-24
  AUC(0-t): 36.3 ng·h/mL
[1]; female, beagle, 30 mg/mL/occasion, female dogs, 30 mg/mL, 6 daily doses, Week 13, read-out: Cmax
  Cmax: 17.5 ng/mL
[1]; female, beagle, 50 mg/mL/occasion, female dogs, 50 mg/mL, 6 daily doses, Day 1
  Tmax: 15 min
[1]; female, beagle, 50 mg/mL/occasion, female dogs, 50 mg/mL, 6 daily doses, Day 1, read-out: AUC0-1
  AUC(0-t): 8.79 ng·h/mL
[1]; female, beagle, 50 mg/mL/occasion, female dogs, 50 mg/mL, 6 daily doses, Day 1, read-out: AUC0-24
  AUC(0-t): 52.7 ng·h/mL
[1]; female, beagle, 50 mg/mL/occasion, female dogs, 50 mg/mL, 6 daily doses, Day 1, read-out: Cmax
  Cmax: 17 ng/mL
[1]; female, beagle, 50 mg/mL/occasion, female dogs, 50 mg/mL, 6 daily doses, Week 4
  Tmax: 15 min
[1]; female, beagle, 50 mg/mL/occasion, female dogs, 50 mg/mL, 6 daily doses, Week 4, read-out: AUC0-1
  AUC(0-t): 5.26 ng·h/mL
[1]; female, beagle, 50 mg/mL/occasion, female dogs, 50 mg/mL, 6 daily doses, Week 4, read-out: AUC0-24
  AUC(0-t): 31.6 ng·h/mL
[1]; female, beagle, 50 mg/mL/occasion, female dogs, 50 mg/mL, 6 daily doses, Week 4, read-out: Cmax
  Cmax: 11.4 ng/mL
[1]; female, beagle, 50 mg/mL/occasion, female dogs, 50 mg/mL, 6 daily doses, Week 13
  Tmax: 10 min
[1]; female, beagle, 50 mg/mL/occasion, female dogs, 50 mg/mL, 6 daily doses, Week 13, read-out: AUC0-1
  AUC(0-t): 6.64 ng·h/mL
[1]; female, beagle, 50 mg/mL/occasion, female dogs, 50 mg/mL, 6 daily doses, Week 13, read-out: AUC0-24
  AUC(0-t): 39.8 ng·h/mL
[1]; female, beagle, 50 mg/mL/occasion, female dogs, 50 mg/mL, 6 daily doses, Week 13, read-out: Cmax
  Cmax: 17.9 ng/mL
[1]; female, beagle, 50 mg/mL/occasion, female dogs, 50 mg/mL, 12 daily doses, Day 1
  Tmax: 30 min
[1]; female, beagle, 50 mg/mL/occasion, female dogs, 50 mg/mL, 12 daily doses, Day 1, read-out: AUC0-1
  AUC(0-t): 12.8 ng·h/mL
[1]; female, beagle, 50 mg/mL/occasion, female dogs, 50 mg/mL, 12 daily doses, Day 1, read-out: AUC0-24
  AUC(0-t): 153 ng·h/mL
[1]; female, beagle, 50 mg/mL/occasion, female dogs, 50 mg/mL, 12 daily doses, Day 1, read-out: Cmax
  Cmax: 21.8 ng/mL
[1]; female, beagle, 50 mg/mL/occasion, female dogs, 50 mg/mL, 12 daily doses, Week 4
  Tmax: 10 min
[1]; female, beagle, 50 mg/mL/occasion, female dogs, 50 mg/mL, 12 daily doses, Week 4, read-out: AUC0-1
  AUC(0-t): 6.77 ng·h/mL
[1]; female, beagle, 50 mg/mL/occasion, female dogs, 50 mg/mL, 12 daily doses, Week 4, read-out: AUC0-24
  AUC(0-t): 81.2 ng·h/mL
[1]; female, beagle, 50 mg/mL/occasion, female dogs, 50 mg/mL, 12 daily doses, Week 4, read-out: Cmax
  Cmax: 14.5 ng/mL
